Drawing on US10968236B2, “TYK2 inhibitors and uses thereof” (Nimbus Lakshmi, Inc., priority 2015, dated 2021), this text covers EC50 and Ki for six compounds.

Experiment [1] has as its system GM-CSF induced pSTAT5 (JAK2-pSTAT5). Put plainly: GM-CSF Induced pSTAT5 in human PBMC. The format is cell-based. The settings on record: GM-CSF 5 ng/mL. Here is the method: GM-CSF Induced pSTAT5 in human PBMC. Cells are prepared for analysis as in the above procedure and 15 μl of GM-CSF (final concentration 5 ng/mL) is added for 20 minutes prior to pSTAT5 and total STAT5 analysis using cell lysates prepared and analyzed by MSD reagents as per manufacturer protocol. The final DMSO concentration of compound in the assay is 0.1%.
(§1) The compound numbers correspond to the compound numbers in Table 1. Compounds having an activity designated as “A” provided an EC50≤2 μM; compounds having an activity designated as “B” provided a EC50 of 2-20 μM, and compounds having an activity designated as “C” provided an EC50>20 μM.

Experiment [2] has as its system IL-12 induced pSTAT4 (Tyk2-pSTAT4). Put plainly: IL-12 Induced pSTAT4 in human PBMC. The format is cell-based. The settings on record: IL-12 1.7 ng/mL. Here is the method:
IL-12 Induced pSTAT4 in human PBMC. Human PBMC are isolated from buffy coat and are stored frozen for assays as needed. Cells for assay are thawed and resuspended in complete media containing serum, then cells are diluted to 1.67 E6 cells/ml so that 120 μl per well is 200,000 cells. 15 μl of compound or DMSO is added to the well at the desired concentrations and incubated at 1 hr at 37 C. 15 μl of stimulus (final concentration of 1.7 ng/mL IL-12) is added for 30 minutes prior to pSTAT4 and total STAT4 analysis using cell lysates prepared and analyzed by MSD reagents as per manufacturer protocol. The final DMSO concentration of compound in the assay is 0.1%.
as §1

The target in the next experiment is JAK2 (Homo sapiens (Human), UniProt O60674). Put plainly: JAK2 activity inhibition assay (radioactive kinase / Caliper assay). The format is biochemical.
Another experiment deals with TYK2 (Homo sapiens (Human), UniProt P29597). Put plainly: Tyk2 activity inhibition assay (radioactive kinase / Caliper assay). The experiment is classed as biochemical.

pEC50, pKi: −log10 of the molar value.

TYK2, sequence (P29597 whole entry): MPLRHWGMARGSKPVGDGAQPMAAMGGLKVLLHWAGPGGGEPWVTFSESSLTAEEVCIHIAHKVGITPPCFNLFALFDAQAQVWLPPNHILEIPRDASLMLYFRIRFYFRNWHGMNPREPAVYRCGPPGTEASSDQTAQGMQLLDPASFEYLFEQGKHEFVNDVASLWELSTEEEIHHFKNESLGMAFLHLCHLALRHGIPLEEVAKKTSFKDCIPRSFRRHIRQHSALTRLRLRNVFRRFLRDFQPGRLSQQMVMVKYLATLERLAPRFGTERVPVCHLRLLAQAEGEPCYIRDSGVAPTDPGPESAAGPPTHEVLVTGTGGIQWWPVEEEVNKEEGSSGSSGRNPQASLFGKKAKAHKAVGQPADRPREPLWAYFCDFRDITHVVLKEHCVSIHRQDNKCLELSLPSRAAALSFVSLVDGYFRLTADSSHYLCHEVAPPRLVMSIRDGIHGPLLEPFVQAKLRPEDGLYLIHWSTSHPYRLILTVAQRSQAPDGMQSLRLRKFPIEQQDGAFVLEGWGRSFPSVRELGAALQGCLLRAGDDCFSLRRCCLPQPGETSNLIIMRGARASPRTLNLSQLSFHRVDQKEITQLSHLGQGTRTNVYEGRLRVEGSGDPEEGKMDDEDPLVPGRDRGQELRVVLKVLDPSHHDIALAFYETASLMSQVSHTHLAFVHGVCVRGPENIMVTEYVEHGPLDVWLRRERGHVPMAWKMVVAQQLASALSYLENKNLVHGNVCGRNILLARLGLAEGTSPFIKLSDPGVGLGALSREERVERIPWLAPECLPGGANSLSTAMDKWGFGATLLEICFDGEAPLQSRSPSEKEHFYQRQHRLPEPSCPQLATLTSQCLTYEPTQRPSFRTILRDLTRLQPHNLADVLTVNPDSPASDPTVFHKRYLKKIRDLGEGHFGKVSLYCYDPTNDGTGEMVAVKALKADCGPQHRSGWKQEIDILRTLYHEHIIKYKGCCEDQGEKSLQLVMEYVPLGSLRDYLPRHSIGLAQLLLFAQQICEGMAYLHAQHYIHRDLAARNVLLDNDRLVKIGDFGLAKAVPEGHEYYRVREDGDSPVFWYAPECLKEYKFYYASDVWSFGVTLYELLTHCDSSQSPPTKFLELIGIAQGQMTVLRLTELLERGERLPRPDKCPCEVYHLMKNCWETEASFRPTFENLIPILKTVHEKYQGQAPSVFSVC
JAK2, sequence (O60674 whole entry): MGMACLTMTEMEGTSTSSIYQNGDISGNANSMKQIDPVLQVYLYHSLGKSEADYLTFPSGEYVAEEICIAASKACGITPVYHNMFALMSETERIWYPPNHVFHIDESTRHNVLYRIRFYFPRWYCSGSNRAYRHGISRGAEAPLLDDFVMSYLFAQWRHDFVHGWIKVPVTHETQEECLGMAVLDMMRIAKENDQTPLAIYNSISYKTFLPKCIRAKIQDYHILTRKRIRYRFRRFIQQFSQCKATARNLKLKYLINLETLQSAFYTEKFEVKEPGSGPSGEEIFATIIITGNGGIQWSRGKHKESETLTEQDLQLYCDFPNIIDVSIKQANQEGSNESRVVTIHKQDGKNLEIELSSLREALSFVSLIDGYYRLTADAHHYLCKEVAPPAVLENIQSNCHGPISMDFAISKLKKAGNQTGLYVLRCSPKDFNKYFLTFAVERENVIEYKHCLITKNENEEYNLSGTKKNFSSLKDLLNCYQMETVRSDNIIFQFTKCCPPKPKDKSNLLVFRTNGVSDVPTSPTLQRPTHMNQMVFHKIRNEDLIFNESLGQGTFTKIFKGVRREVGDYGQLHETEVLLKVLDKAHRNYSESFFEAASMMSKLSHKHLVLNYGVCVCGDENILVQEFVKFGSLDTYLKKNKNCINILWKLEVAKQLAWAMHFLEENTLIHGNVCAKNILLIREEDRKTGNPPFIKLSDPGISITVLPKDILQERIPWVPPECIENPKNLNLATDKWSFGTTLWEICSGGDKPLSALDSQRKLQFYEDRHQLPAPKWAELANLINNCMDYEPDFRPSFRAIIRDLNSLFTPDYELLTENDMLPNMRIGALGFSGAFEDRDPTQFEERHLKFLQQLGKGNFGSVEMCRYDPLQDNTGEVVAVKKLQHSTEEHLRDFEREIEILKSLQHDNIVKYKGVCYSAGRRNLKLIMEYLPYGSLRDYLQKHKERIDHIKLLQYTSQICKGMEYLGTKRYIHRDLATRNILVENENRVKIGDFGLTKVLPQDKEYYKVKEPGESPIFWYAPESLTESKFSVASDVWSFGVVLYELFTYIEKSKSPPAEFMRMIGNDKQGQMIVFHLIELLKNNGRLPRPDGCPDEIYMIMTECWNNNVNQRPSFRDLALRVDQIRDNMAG

Turning to `CC1(C)CNc2cc(Nc3nc(-c4c(F)cccc4F)nc4c3C(=O)NC4)ccc21` [Compound I-2, 2-(2,6-difluorophenyl)-4-((3,3-dimethylindolin-6-yl)amino)-6,7-dihydro-5H-pyrrolo[3,4-d]pyrimidin-5-one], the negative-log EC50 (pEC50) in experiment [1] was 4.70 to 5.70; in experiment [2] it was not below 5.70. The pKi on JAK2 was 7.00 to 8.00; at TYK2, not below 8.00.
Taken in the same sequence, the figures for `N#Cc1cccc(F)c1-c1cc(Nc2ccc(N3CC[C@@]4(C[C@@H](O)CO4)C3)cn2)c2c(n1)CNC2=O` [Compound I-88, 3-fluoro-2-(4-((5-((3R,5R)-3-hydroxy-1-oxa-7-azaspiro[4.4]nonan-7-yl)pyridin-2-yl)amino)-5-oxo-6,7-dihydro-5H-pyrrolo[3,4-b]pyridin-2-yl)benzonitrile] were not below 5.70, not below 5.70, not below 8.00 and not below 8.00.
Consider `N#Cc1cccc(F)c1-c1cc(Nc2ccc(N3CCC4(C[C@H](O)CO4)C3)cn2)c2c(n1)CNC2=O` (stereo in doubt) [Compound I-93, 3-fluoro-2-(4-((5-((3S,5R)-3-hydroxy-1-oxa-7-azaspiro[4.4]nonan-7-yl)pyridin-2-yl)amino)-5-oxo-6,7-dihydro-5H-pyrrolo[3,4-b]pyridin-2-yl)benzonitrile], for which the pEC50 in experiment [1] was 4.70 to 5.70; in experiment [2], not below 5.70. Further, the figures for the pKi at JAK2 and on TYK2 were 7.00 to 8.00 and not below 8.00, respectively.
Taken in the same sequence, the figures for `O=C1NCc2nc(-c3c(F)cccc3F)cc(Nc3ccc(N4CCOC45COC5)cn3)c21` [Compound I-65, 4-((5-(2,5-dioxa-8-azaspiro[3.4]octan-8-yl)pyridin-2-yl)amino)-2-(2,6-difluorophenyl)-6,7-dihydro-5H-pyrrolo[3,4-b]pyridin-5-one] were 4.70 to 5.70, not below 5.70, not below 8.00 and not below 8.00.
On to `O=C1NCc2nc(-c3c(F)cccc3F)cc(Nc3ccc(N4CCCC5(CCO5)C4)cn3)c21` (stereo not drawn) [Compound I-36, 4-((5-(1-oxa-6-azaspiro[3.5]nonan-6-yl)pyridin-2-yl)amino)-2-(2,6-difluorophenyl)-6,7-dihydro-5H-pyrrolo[3,4-b]pyridin-5-one], for which the results for the pEC50 in experiment [1] and in experiment [2] were 4.70 to 5.70 and not below 5.70, respectively. The pKi on JAK2 is 7.00 to 8.00; on TYK2, not below 8.00.
As for `CCNC(=O)[C@@](C)(O)c1ccc(Nc2nc(-c3c(F)cccc3F)nc3c2C(=O)NC3)cc1` [Compound I-15, (S)-2-(4-((2-(2,6-difluorophenyl)-5-oxo-6,7-dihydro-5H-pyrrolo[3,4-d]pyrimidin-4-yl)amino)phenyl)-N-ethyl-2-hydroxypropanamide], the figures for the pEC50 in experiment [1] and in experiment [2] were 4.70 to 5.70 and not below 5.70, respectively. In addition, the pKi at JAK2 was 7.00 to 8.00; on TYK2 it was not below 8.00.
